Experimental data: ChEMBL document CHEMBL1155934, “Novel quinolinonyl diketo acid derivatives as HIV-1 integrase inhibitors: design, synthesis, and biological activities” (J Med Chem, 2008)
pEC50, pIC50: −log10 of the molar value. Calls of active or inactive are those of the source. No cut-off for these calls is given here.

Assays:
[1] = biological target: Human immunodeficiency virus type 1 integrase (Human immunodeficiency virus 1) (UniProt Q7ZJM1); assay: Inhibition of HIV1 recombinant integrase in presence of manganese
[2] = tested on: U-937; assay: Cytotoxicity against human U937 cells after 24 hrs by MTT assay; settings: u-937, 24 h
[3] = biological target: T1, Human immunodeficiency virus type 1 integrase (Human immunodeficiency virus 1, UniProt Q7ZJM1); assay: Inhibition of recombinant HIV1 integrase strand transfer activity by gel-based assay in presence of magnesium
[4] = biological target: T1, Human immunodeficiency virus type 1 integrase; assay: Inhibition of recombinant HIV1 integrase 3'-end processing activity by gel-based assay in presence of magnesium
[5] = biological target: T1, Human immunodeficiency virus type 1 integrase
Description: Inhibition of recombinant HIV1 integrase strand transfer activity by high throughput electrochemiluminescent assay in presence of magnesium

[6] = tested on: Human immunodeficiency virus 1; assay: Antiviral activity against HIV1-infected in human H9/HTLV 3B cells after 4 days; assay type: functional, organism-based; settings: Human immunodeficiency virus 1, 96 h

Sequence of Human immunodeficiency virus type 1 integrase (Human immunodeficiency virus 1) (Q7ZJM1 as listed by the source): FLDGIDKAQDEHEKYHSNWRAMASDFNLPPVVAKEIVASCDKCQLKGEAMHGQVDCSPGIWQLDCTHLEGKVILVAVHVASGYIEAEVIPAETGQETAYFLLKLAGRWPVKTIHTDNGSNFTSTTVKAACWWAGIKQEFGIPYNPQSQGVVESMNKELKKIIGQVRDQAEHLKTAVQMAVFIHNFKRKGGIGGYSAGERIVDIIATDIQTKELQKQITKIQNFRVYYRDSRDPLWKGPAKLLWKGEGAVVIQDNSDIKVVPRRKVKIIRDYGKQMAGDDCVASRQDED
T1 sequence (Q7ZJM1 whole entry): as the sequence (Q7ZJM1 as listed by the source) above

pEC50 [6] | Structure (SMILES) | Activity [1] | CC50 [2] | pIC50 [3] | pIC50 [4] | pIC50 [5]
 | O=C(O)/C(O)=C/C(=O)c1cn(Cc2ccc(F)cc2)c2cc(F)ccc2c1=O | Active | > 200 µM | 7.30 | 5.36 | 7.70
 | O=C(O)/C(O)=C/C(=O)c1cn(Cc2ccc(F)cc2)c2ccccc2c1=O | Active | > 200 µM | 7.22 | 4.85 | 7.40
 | O=C(O)/C(O)=C/C(=O)c1cn(Cc2ccc(F)cc2)c2cc(Cl)c(Cl)cc2c1=O | Active | 156 µM | 7.12 | 4.96 | 7.48
 | O=C(O)/C(O)=C/C(=O)c1cn(Cc2ccc(F)cc2)c2c(Cl)cccc2c1=O | Active | > 200 µM | 6.29 | 4.36 | 
 | CCOC(=O)/C(O)=C/C(=O)c1c[nH]c2ccc(Cl)cc2c1=O |  |  | 5.68 | 3.92 | 5.48
 | CCOC(=O)/C(O)=C/C(=O)c1cn(Cc2ccc(F)cc2)c2ccc(Cl)cc2c1=O | Active |  | 5.52 | < 3.48 | 4.68
 | O=C(O)/C(O)=C/C(=O)c1cn(Cc2ccc(F)cc2)c2ccc(Cl)cc2c1=O | Active | > 200 µM | 6.40 | 5.19 | 7.55
 | CCOC(=O)/C(O)=C/C(=O)c1cn(Cc2ccc(F)cc2)c2cc(Cl)ccc2c1=O | Active |  | 5.44 | < 3.48 | 4.85
6.00 | O=C(O)C(=O)CC(=O)c1cccn1Cc1ccc(F)cc1 |  |  |  |  | 
 | CCOC(=O)/C(O)=C/C(=O)c1cn(Cc2ccc(F)cc2)c2c(Cl)cccc2c1=O | Active | > 200 µM | 5.28 | < 3.48 | 4.49
 | O=C(O)/C(O)=C/C(=O)c1c[nH]c2cc(Cl)ccc2c1=O |  |  | 4.77 | < 3.48 | 4.43
 | O=C(O)/C(O)=C/C(=O)c1cn(Cc2ccc(F)cc2)c2cc(Cl)ccc2c1=O | Active | > 200 µM | 6.96 | 5.40 | 7.72
 | O=C(O)/C(O)=C/C(=O)c1cn(Cc2ccc(F)cc2)c2cc(N3CCCC3)ccc2c1=O | Active | > 200 µM | 6.74 | 4.85 | 7.55
 | O=C(O)/C(O)=C/C(=O)c1c[nH]c2ccc(Cl)cc2c1=O |  |  | 4.25 | 3.78 | < 3.95
 | CCOC(=O)/C(O)=C/C(=O)c1c[nH]c2cc(Cl)ccc2c1=O |  |  | 3.65 | < 3.48 | < 3.95
 | CCOC(=O)/C(O)=C/C(=O)c1cn(Cc2ccc(F)cc2)c2cc(F)ccc2c1=O | Active | > 200 µM | 5.92 | < 3.48 | 5.89
 | O=C(O)/C(O)=C/C(=O)c1cn(Cc2ccc(F)cc2)c2c(F)cccc2c1=O | Active | > 200 µM | 6.80 | 4.80 | 7.74
 | O=C(O)/C(O)=C/C(=O)c1cn(Cc2ccc(F)cc2)c2ccc(F)cc2c1=O | Active | > 200 µM |  | 5.64 | 
 | CCOC(=O)/C(O)=C/C(=O)c1cn(Cc2ccc(F)cc2)c2cc(N3CCCC3)ccc2c1=O | Active | > 200 µM | 5.57 | 3.96 | 5.64
 | CCOC(=O)/C(O)=C/C(=O)c1cn(Cc2ccc(F)cc2)c2ccc(F)cc2c1=O | Active | > 200 µM | 6.64 | < 3.48 | 6.24
 | O=C(O)/C(O)=C/C(=O)c1ccc2c(c1)c(=O)c(C(=O)/C=C(\O)C(=O)O)cn2Cc1ccc(F)cc1 |  | > 200 µM |  |  | 
 | CCOC(=O)/C(O)=C/C(=O)c1cn(Cc2ccc(F)cc2)c2cc(Cl)c(Cl)cc2c1=O | Active | 72 µM | 5.74 | 3.87 | 5.41
 | CCOC(=O)/C(O)=C/C(=O)c1cn(Cc2ccc(F)cc2)c2ccccc2c1=O | Active | 99 µM | 6.36 | 3.87 | 6.17
 | CCOC(=O)/C(O)=C/C(=O)c1cn(Cc2ccc(F)cc2)c2c(F)cccc2c1=O | Active | > 200 µM | 5.28 | < 3.48 | 4.59
